Assay results taken from ChEMBL document CHEMBL3085739, “Design, synthesis, and biological evaluation of 2-oxo-3,4-dihydropyrimido[4,5-d]pyrimidinyl derivatives as new irreversible epidermal growth factor receptor inhibitors with improved pharmacokinetic properties” (J Med Chem, 2013).
The source made the active and inactive calls. The calls are words filed in the database; no cut-off is given here.

Experiments:
[1] = Antiproliferative activity against human HL7702 cells after 72 hrs by MTS assay; type: cell-based; settings: L02, 72 h
[2] = target: T1, Dual specificity mitogen-activated protein kinase kinase 5 (Homo sapiens) (UniProt Q13163); assay: Binding affinity to MEK5 (unknown origin)
T1 sequence (whole entry): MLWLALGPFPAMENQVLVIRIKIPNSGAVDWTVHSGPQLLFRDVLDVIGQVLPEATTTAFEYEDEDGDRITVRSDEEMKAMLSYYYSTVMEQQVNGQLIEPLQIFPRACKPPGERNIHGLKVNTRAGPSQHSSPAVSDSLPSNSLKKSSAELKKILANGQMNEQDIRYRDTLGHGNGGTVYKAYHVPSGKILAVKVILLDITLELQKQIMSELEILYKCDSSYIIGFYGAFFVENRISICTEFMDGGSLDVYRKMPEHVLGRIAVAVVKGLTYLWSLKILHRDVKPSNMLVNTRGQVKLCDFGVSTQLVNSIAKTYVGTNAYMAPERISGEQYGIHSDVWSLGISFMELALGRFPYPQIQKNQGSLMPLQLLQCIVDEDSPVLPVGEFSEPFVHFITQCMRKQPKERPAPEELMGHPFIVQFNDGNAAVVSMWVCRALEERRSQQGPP

## C=CC(=O)N1CC[C@H](N2C(=O)N(c3ccccc3)Cc3cnc(Nc4ccc(N5CCN(C)CC5)c(C)c4)nc32)C1
[1]
  IC50: > 10 µM
[2]
  Activity: Active
